# Source: patent US6723753B2, “Substituted n-benzyl-n-phenyl aminoalcohol compounds useful for inhibiting cholesteryl ester transfer protein activity” (Pharmacia Corporation, priority 2002, dated 2004)
# Experiments:
# [1] = target: T1, CETP (Homo sapiens, UniProt P11597); experiment: Assay of CETP Inhibition using Purified Components (Reconstituted Buffer Assay); type: biochemical; design: made in house; host or cells: CHO cells (serum-free conditioned medium)
# T1 sequence (P11597 18-493): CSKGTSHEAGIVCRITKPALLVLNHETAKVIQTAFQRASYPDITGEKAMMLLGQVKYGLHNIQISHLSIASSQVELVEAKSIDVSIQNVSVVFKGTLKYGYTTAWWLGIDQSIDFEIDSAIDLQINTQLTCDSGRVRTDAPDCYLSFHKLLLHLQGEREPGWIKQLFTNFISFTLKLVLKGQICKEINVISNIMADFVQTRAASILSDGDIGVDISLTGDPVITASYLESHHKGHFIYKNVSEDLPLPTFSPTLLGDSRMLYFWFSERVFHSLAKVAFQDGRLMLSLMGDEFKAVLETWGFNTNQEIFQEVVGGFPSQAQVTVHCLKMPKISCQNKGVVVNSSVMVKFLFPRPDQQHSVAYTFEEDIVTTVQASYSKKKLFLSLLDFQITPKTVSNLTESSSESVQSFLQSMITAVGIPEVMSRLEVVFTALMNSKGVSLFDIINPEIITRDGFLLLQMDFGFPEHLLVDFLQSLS
# How it was run: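 Purified human recombinant CETP from transfected CHO cells was incubated with [^3H]CE-labeled HDL donor and LDL acceptor in Tris pH 7.4/NaCl/EDTA/1% BSA buffer for 2 h at 37 °C. LDL was then precipitated with dextran sulfate/MgCl2, filtered, and counted by liquid scintillation to give IC50 for CE transfer.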
# [2] = target: T1, CETP; experiment: Assay of CETP Inhibition in Human Plasma; type: biochemical; design: Blood was obtained from healthy volunteers, recruited from the personnel of Monsanto Company; from tissue; host or cells: human EDTA plasma pool from healthy volunteers; settings: Inhibition of CETP activity in human plasma assay; transfer of [3H]CE from HDL to VLDL and LDL; read-out: IC50
# How it was run: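 In human EDTA plasma with [3H]CE-HDL, compounds in 1% DMSO (4 μL in 396 μL) were incubated 4 h at 37° C. IC50 was taken from % control versus concentration.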
# [3] = Inhibition of CETP activity in reconstituted buffer assay, transfer of [3H]CE from HDL to LDL, read-out: IC50
"IC50 [1, 3] [µM]",IC50 [2] [µM],SMILES,IC50 [1] [µM],"IC50 ([1]; IC50, Inhibition of CETP activity in reconstituted buffer assay, transfer of [3H]CE from HDL to LDL) [µM]"
1,11,OC(CN(Cc1cccc(OC(F)(F)C(F)F)c1)c1cccc(-c2ccc(F)c(F)c2F)c1)C(F)(F)F (centres unmarked) [Example 560],,
1.1,42,"OC(CN(Cc1cccc(-c2cccs2)c1)c1cccc(Oc2ccccc2)c1)C(F)(F)F (centres unmarked) [Example 595, 3-[(3-phenoxyphenyl) [[3-(2-thienyl)phenyl]methyl]amino]-1,1,1-trifluoro-2-propanol]",,
4.5,> 100,"OC(CN(Cc1cccc(Br)c1)c1cccc(Oc2ccccc2)c1)C(F)(F)F (centres unmarked) [Example 595B, 3-[(3-phenoxyphenyl)[[3-bromophenyl]methyl]amino]-1,1,1-trifluoro-2-propanol]",,
0.054,3.4,"OC(CN(Cc1cccc(OC(F)(F)C(F)F)c1)c1cccc(Oc2cc(F)ccc2Br)c1)C(F)(F)F (centres unmarked) [Example 629, 3-[[3-(2-bromo-5-fluorophenoxy)phenyl][[3-(1,1,2,2-tetrafluoro-ethoxy)phenyl]methyl]amino]-1,1,1-trifluoro-2-propanol]",,
0.05,1.8,"OC(CN(Cc1cccc(OC(F)(F)C(F)F)c1)c1cccc(Oc2cc(Br)ccc2F)c1)C(F)(F)F (centres unmarked) [Example 630, 3-[[3-(-5-bromo-2-fluorophenoxy)phenyl][[3-(1,1,2,2-tetrafluoro-ethoxy)phenyl]methyl]amino]-1,1,1-trifluoro-2-propanol]",,
0.67,12,"CC(C)(C)Oc1cccc(CN(CC(O)C(F)(F)F)c2cccc(Oc3ccccc3)c2)c1 (centres unmarked) [Example 654, 3-[(3-phenoxyphenyl)[[3-(1,1-dimethylethoxy)phenyl]methyl]amino]-1,1,1-trifluoro-2-propanol]",,
3.6,48,"OC(COc1cccc(CN(CC(O)C(F)(F)F)c2cccc(Oc3ccccc3)c2)c1)C(F)(F)F (centres unmarked) [Example 655, 3-[(3-phenoxyphenyl)[[3-(2-hydroxy-3,3,3-trifluoro-n-propoxy)phenyl]methyl]amino]-1,1,1-trifluoro-2-propanol]",,
1.3,63,"OC(COc1cccc(CN(CC(O)C(F)(F)F)c2cccc(Oc3ccc(F)cc3)c2)c1)C(F)(F)F (centres unmarked) [Example 655B, 3-[3-(4-fluorophenoxy)phenyl[[3-(2-hydroxy-3,3,3-trifluoro-n-propoxy)phenyl]methyl]amino]-1,1,1-trifluoro-2-propanol]",,
0.04,1.1,"CCc1cc(Oc2cccc(N(Cc3cccc(C(F)(F)C(F)(F)F)c3)CC(O)C(F)(F)F)c2)ccc1Cl (centres unmarked) [Example 660, 3-[(4-chloro-3-ethylphenoxy)phenyl[[3-(pentafluoroethyl)phenyl]methyl]-amino]-1,1,1-trifluoro-2-propanol.]",,
15,> 100,COc1ccc(CN(CC(O)C(F)(F)F)c2cccc(Oc3ccccc3)c2)cc1 (centres unmarked) [Example 686],,
2.5,> 100,OC(CN(Cc1cccc(C(F)(F)F)c1)c1cccc(OC(F)(F)F)c1)C(F)(F)F (centres unmarked) [Example 688],,
2.5,75,OC(CN(Cc1cccc(Oc2ccccc2)c1)c1cc(C(F)(F)F)cc(C(F)(F)F)c1)C(F)(F)F (centres unmarked) [Example 690],,
3,> 100,OC(CN(Cc1cccc(C(F)(F)F)c1)c1cc(C(F)(F)F)ccc1C(F)(F)F)C(F)(F)F (centres unmarked) [Example 691],,
0.91,31,O=S(=O)(c1ccccc1)c1cccc(N(Cc2cccc(OC(F)(F)C(F)F)c2)CC(O)C(F)(F)F)c1 (centres unmarked) [compound 218],,
2.1,> 100,OC(CN(Cc1cccc(OC(F)(F)C(F)F)c1)c1cccc(N2CCCCC2)c1)C(F)(F)F (centres unmarked) [compound 315],,
1.5,55,OC(CN(Cc1cccc(OC(F)(F)F)c1)c1ccc2c(c1)Cc1ccccc1-2)C(F)(F)F (centres unmarked) [compound 699],,

SMILES,"IC50 [1, 3] [µM]",IC50 [2] [µM],IC50 [1] [µM],"IC50 ([1]; IC50, Inhibition of CETP activity in reconstituted buffer assay, transfer of [3H]CE from HDL to LDL) [µM]"
"CC(=O)OC(CN(Cc1cccc(C(F)(F)F)c1)c1cccc(F)c1)C(F)(F)F (centres unmarked) [Example 664, 2,2,2-trifluoro-1-[[(3-fluorophenyl)[3-(trifluoromethyl)phenyl]-methyl]amino]methyl]ethyl Acetate]",,> 200,70,
OC(CN(Cc1cccc(SC(F)(F)F)c1)c1cccc(Oc2ccccc2)c1)C(F)(F)F (centres unmarked) [compound 216],,24,,0.39
OC(CN(Cc1ccc(F)c(-c2ccco2)c1)c1cccc(Oc2ccccc2)c1)C(F)(F)F (centres unmarked) [compound 593],0.78,49,,
